Experimental data published in PMC8962382, “Identification of Novel Mitochondrial Pyruvate Carrier Inhibitors by Homology Modeling and Pharmacophore-Based Virtual Screening” (Biomedicines, 2022).
Positions count from the first letter of the chain named. Read-outs that look alike come from different tables or passages of the source. Each block holds one compound with its values, some of them ahead of it.

What was measured:
[1] = target: T1, mitochondrial pyruvate carrier (MPC) (Mus musculus, UniProt P63030+Q9D023); experiment: Inhibition of pyruvate-stimulated respiration (OCR) of isolated heart mitochondria; type: biochemical, mice; conditions: for IC50: Table 1, inhibiting mitochondrial pyruvate respiration, isolated heart mitochondria
T1 construct: 50 µg of mitochondrial protein was added to the chambers of an Oxygraph O2K; from tissue; host or cells: heart mitochondria of C57Bl/6J mice
T1 sequence (P63030 2-109 limits assumed): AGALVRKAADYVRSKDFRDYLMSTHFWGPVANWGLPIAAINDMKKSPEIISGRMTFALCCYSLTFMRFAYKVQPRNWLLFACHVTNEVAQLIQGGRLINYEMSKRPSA
T1 sequence (Q9D023 1-127): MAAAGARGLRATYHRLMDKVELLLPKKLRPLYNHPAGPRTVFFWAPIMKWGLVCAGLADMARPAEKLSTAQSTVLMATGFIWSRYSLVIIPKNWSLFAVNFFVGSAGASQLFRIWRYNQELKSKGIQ
Protocol: Hearts were removed from mice after CO2 asphyxiation and homogenized in buffer containing 250 mM sucrose, 10 mM Tris base, and 1 mM EDTA (pH = 7.4) by 8–10 passes of a glass-on-glass Dounce homogenizer on ice. Homogenates were centrifuged at 1000× g for 5 min at 4 °C to pellet nuclei and undisrupted cells. The supernatants were then centrifuged at 10,000× g for 10 min at 4 °C to enrich for mitochondria; this mitochondrial pellet was washed and re-pelleted twice in fresh sucrose/tris buffer. The mitochondrial pellet was then solubilized in ~150 μL of Mir05 respiration buffer (0.5 mM EGTA, 3 mM MgCl2, 60 mM lactobionic acid, 20 mM taurine, 10 mM KH2PO4, 20 mM HEPES, 110 mM sucrose and 1 g/L of fatty acid free bovine serum albumin; pH 7.1). Mitochondrial protein content was then measured by BCA; 50 µg of mitochondrial protein was added to the chambers of an Oxygraph O2K (Oroboros Instruments), with a total volume of 2 mL Mir05 buffer set to 37 °C. Respiration was stimulated with 5 mM pyruvate/2 mM malate and 2 mM ADP. After obtaining steady state respiration measurements, compounds were added to the chamber at the indicated concentrations. Then, 5 mM succinate was added to determine inhibitor specificity towards pyruvate-stimulated respiration. Steady-state rates of oxygen consumption were assessed for 1–2 min before addition of subsequent substrate or inhibitor. Oxygen consumption rates (OCR) were calculated from the change in oxygen concentration over time and normalized to 50 µg of mitochondria within the chamber.

[2] = target: T2, Human MPC1 and MPC2 (WT MPC BRET constructs) (Homo sapiens, UniProt O95563+Q9Y5U8); experiment: BRET-based MPC reporter assay in U2OS cells (MPC1-mCherry / MPC2-NLuc); type: cell-based; conditions: for BRET activity: test compounds dosed at 10 μM, U2OS cells, WT MPC BRET constructs; for BRET assay activation: WT MPC
T2 construct: expressed in transfected cells; host or cells: U2OS cells, transient transfection
T2 sequence (Q9Y5U8 2-109 limits assumed): T1 sequence (P63030 2-109 limits assumed) with V84A, N99K, Y100H, S103T, R105T, P106A
T2 sequence (O95563 1-127): T1 sequence (Q9D023 1-127) with A2S, M17L, L23M, K26E, T73A, S105A, S123A, G125A, I126H, Q127K
Protocol: Based on the success of a previously described MPC BRET reporter assay, we developed our own BRET assay using more recently adopted BRET donor and acceptor pairs. In this assay, Nanoluciferase is used as the BRET donor, and mCherry fluorescent protein is used as the BRET acceptor. Human MPC1 and MPC2 cDNA constructs with stop codon removed for C-terminal tagging were obtained from the Harvard PlasmID repository. […] Site-directed mutagenesis (Agilent) was then performed to delete linking regions between the MPC proteins and C-terminal tags.
For BRET assays, U2OS cells were transiently transfected with MPC1-mCherry and MPC2-NLuc constructs and, 24 h later, plated onto 9 columns of a clear-bottom white 96-well plate at 10,000 cells/well. As a BRET control, some cells were transfected with MPC2-NLuc only, and these cells plated on the remaining 3 columns of the 96-well plate at 10,000 cells/well. The following day, cells were washed with PBS and starved in phenol red-, glucose-, and pyruvate-free Dulbecco’s Modified Eagle’s Medium (DMEM) for 3 h. Cells were then washed in PBS and then provided PBS with 1 mM CaCl2 and 0.5 mM MgCl2 plus 2 μg/mL coelenterazine h BRET substrate, a white sticker applied to the bottom of the plate, and the plate immediately placed into a BioTek Synergy plate reader. […] After several baseline readings, the plate was ejected, and test substrates/compounds were manually pipetted into the wells. […] All data was then normalized to the values immediately prior to compound injection. Data were either reported as curves over time or average normalized BRET of the several readings immediately after compound injections. For testing pyruvate/inhibitor-binding residues, point mutations were made in MPC1 or MPC2 constructs by site-directed mutagenesis (Agilent); BRET assays were performed the same as above. All of these assays contained 96-well plates directly comparing cells expressing WT MPC and mutant BRET constructs.

[3] = tested on: MPC1-F66A or MPC2-K49A; experiment: BRET-based MPC reporter assay with mutant MPC constructs; type: cell-based, Human; conditions: magnitude much less than in WT-expressing cells
Protocol: For BRET assays, U2OS cells were transiently transfected with MPC1-mCherry and MPC2-NLuc constructs and, 24 h later, plated onto 9 columns of a clear-bottom white 96-well plate at 10,000 cells/well. As a BRET control, some cells were transfected with MPC2-NLuc only, and these cells plated on the remaining 3 columns of the 96-well plate at 10,000 cells/well. The following day, cells were washed with PBS and starved in phenol red-, glucose-, and pyruvate-free Dulbecco’s Modified Eagle’s Medium (DMEM) for 3 h. Cells were then washed in PBS and then provided PBS with 1 mM CaCl2 and 0.5 mM MgCl2 plus 2 μg/mL coelenterazine h BRET substrate, a white sticker applied to the bottom of the plate, and the plate immediately placed into a BioTek Synergy plate reader. Luminescence was then read repeatedly from the top of the plate at emission wavelengths of 485/20 nm and 640/40 nm for NLuc and mCherry signals, respectively. After several baseline readings, the plate was ejected, and test substrates/compounds were manually pipetted into the wells. […] To calculate BRET activity, at each reading interval, the luminescence of 620 nm emission wavelength was divided by the 485 nm emission wavelength, and the values from the MPC2-Nluc-only expressing cells were subtracted from the cells expressing both constructs. […]

SMILES: CCOC(=O)/C(C#N)=C/c1c[nH]nc1C(C)(C)C [BE1988]
IC50 [1]: inactive

SMILES: Cc1ccc(-c2c[nH]nc2/C=C(\C#N)C(=O)O)cc1 [BE2623, (E)-2-Cyano-3-[4-(p-Tolyl)-3-Pyrazolyl]acrylic Acid]
IC50 ([1]; read-out: IC50): 731 nM | fold less potent than UK-5099 ([1]; inhibiting the respiration): 3 fold | fold less potent than BE2617 ([1]; ratio of IC50 values): more than 18 fold | BRET activity [2]: showed activity

SMILES: COc1cccc(C(=O)COc2ccc(CC3SC(=O)[N-]C3=O)cc2)c1.[K+] (stereo not shown) [MSDC-0602K, reference compound]
BRET assay activation ([2]; 10 μM MSDC-0602K vs DMSO vehicle): activated | BRET activity in mutants [3]: small, but significant, activation of BRET activity

SMILES: CC(=O)C(=O)O [pyruvate]
BRET assay activation ([2]; 5 mM pyruvate vs DMSO vehicle): activated

Continued, in another order:

MPC inhibitory activity ([1]; SAR statement): abolished activity | IC50 [1]: inactive
SMILES: O=C(NC(Cc1c[nH]c2ccccc12)C(=O)O)C1CC1 (stereo not shown) [BE1975]

IC50 ([1]; read-out: IC50): 162 nM | BRET activity [2]: increased BRET activity
SMILES: Cc1nn(-c2ccccc2)c(C)c1/C=C(\C#N)C(=O)O [BE1980, (E)-2-Cyano-3-(3,5-Dimethyl-1-Phenyl-4-Pyrazolyl)acrylic Acid]

IC50 ([1]; read-out: IC50): 638 nM | fold less potent than BE1978 ([1]; ratio of IC50 values): 5 fold | fold less potent than BE1980 ([1]; ratio of IC50 values): 4 fold | BRET activity [2]: increased BRET activity
SMILES: N#C/C(=C\c1c[nH]nc1-c1cccc(Br)c1)C(=O)O [BE1985]

IC50 ([1]; read-out: IC50): 39 nM | fold more potent than UK-5099 ([1]; ratio of IC50 values): 6 fold | BRET activity [2]: showed activity
SMILES: N#C/C(=C\c1n[nH]cc1-c1ccccc1)C(=O)O [BE2617, (E)-2-Cyano-3-(4-Phenyl-3-Pyrazolyl)acrylic Acid]

IC50 ([1]; read-out: IC50): 241 nM | BRET assay activation ([2]; 5 μM UK-5099 vs DMSO vehicle): activated
SMILES: N#C/C(=C\c1cn(-c2ccccc2)c2ccccc12)C(=O)O [UK-5099, reference compound]
BRET activity in mutants [3]: small, but significant, activation of BRET activity
